# Test results published in ChEMBL document CHEMBL5291721, “A preclinical secondary pharmacology resource illuminates target-adverse drug reaction associations of marketed drugs” (Nat Commun, 2023).
# Tests used:
# [1] = target: T1, Type-1 angiotensin II receptor (Homo sapiens, UniProt P30556)
# T1 sequence (P30556 whole entry): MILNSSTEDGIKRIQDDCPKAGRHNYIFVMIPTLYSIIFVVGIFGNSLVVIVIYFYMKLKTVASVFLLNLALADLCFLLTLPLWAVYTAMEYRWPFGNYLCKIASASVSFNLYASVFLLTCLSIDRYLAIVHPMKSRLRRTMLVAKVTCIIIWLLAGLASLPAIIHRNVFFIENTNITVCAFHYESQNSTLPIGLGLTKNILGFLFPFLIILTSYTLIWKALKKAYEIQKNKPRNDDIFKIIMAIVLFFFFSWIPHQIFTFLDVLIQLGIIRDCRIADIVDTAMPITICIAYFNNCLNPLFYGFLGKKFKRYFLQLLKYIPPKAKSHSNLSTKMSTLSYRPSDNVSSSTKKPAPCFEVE
# [2] = target: D(1A) dopamine receptor (Homo sapiens, UniProt P21728); type: functional, cell-based
# [3] = target: 5-hydroxytryptamine receptor 2B (Homo sapiens, UniProt P41595); type: functional, cell-based
# [4] = target: Delta-type opioid receptor (Homo sapiens, UniProt P41143)
# [5] = target: cGMP-inhibited 3',5'-cyclic phosphodiesterase 3A (Homo sapiens, UniProt Q14432); type: functional
# [6] = target: Gamma-aminobutyric acid receptor subunit alpha-1 (Rattus norvegicus, UniProt P62813); type: functional
# [7] = target: Motilin receptor (Homo sapiens, UniProt O43193)
# [8] = target: Bile salt export pump (Homo sapiens, UniProt O95342); type: functional
# [9] = target: D(3) dopamine receptor (Homo sapiens, UniProt P35462)
# [10] = target: T2, Equilibrative nucleoside transporter 1 (Homo sapiens, UniProt Q99808)
# T2 sequence (Q99808 whole entry): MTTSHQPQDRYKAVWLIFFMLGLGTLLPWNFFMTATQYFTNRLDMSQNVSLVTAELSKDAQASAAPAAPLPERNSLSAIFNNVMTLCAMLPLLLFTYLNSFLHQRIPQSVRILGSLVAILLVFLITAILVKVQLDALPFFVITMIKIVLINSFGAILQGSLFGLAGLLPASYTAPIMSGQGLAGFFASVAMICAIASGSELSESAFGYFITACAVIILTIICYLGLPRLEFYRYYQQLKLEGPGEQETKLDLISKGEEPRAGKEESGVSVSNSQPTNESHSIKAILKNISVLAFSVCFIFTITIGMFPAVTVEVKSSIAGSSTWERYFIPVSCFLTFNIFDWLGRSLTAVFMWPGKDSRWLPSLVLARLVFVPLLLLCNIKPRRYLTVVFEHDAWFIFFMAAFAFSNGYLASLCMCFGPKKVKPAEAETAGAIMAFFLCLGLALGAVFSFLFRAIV
# [11] = target: T3, Prostaglandin G/H synthase 1 (Rattus norvegicus, UniProt Q63921); type: functional
# T3 sequence (Q63921 whole entry): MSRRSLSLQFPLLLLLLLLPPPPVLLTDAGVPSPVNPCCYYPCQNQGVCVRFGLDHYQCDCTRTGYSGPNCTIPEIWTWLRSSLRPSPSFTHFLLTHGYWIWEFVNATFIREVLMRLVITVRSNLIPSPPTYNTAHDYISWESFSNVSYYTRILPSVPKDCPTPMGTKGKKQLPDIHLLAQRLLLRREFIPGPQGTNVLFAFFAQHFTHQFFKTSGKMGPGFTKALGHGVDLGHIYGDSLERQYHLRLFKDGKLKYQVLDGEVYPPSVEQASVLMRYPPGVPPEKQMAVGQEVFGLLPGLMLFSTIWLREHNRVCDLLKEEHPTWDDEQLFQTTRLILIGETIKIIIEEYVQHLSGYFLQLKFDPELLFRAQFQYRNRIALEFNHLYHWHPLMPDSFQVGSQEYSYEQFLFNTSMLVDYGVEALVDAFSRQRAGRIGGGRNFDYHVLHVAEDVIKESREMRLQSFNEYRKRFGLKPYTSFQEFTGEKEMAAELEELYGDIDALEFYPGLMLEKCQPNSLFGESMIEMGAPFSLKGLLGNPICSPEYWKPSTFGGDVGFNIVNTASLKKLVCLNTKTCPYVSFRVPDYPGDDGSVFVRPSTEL
# [12] = target: Growth hormone secretagogue receptor type 1 (Homo sapiens, UniProt Q92847)
# [13] = target: T4, 5-hydroxytryptamine receptor 3A (Homo sapiens, UniProt P46098); type: functional
# T4 sequence (P46098 whole entry): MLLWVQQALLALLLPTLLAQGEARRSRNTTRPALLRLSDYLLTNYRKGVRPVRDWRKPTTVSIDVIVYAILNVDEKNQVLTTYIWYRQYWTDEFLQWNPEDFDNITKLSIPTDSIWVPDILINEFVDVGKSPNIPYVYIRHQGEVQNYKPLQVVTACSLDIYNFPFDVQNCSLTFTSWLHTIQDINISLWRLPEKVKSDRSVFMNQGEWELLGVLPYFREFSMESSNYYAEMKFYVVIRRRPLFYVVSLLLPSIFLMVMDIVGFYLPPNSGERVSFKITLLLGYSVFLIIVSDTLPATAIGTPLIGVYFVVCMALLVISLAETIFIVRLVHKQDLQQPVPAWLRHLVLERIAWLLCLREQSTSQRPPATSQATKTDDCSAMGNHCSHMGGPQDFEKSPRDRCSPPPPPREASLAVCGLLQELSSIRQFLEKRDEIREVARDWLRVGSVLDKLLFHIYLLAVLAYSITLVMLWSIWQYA
# [14] = target: T5, Adenosine receptor A3 (Homo sapiens, UniProt P0DMS8)
# T5 sequence (P0DMS8 whole entry): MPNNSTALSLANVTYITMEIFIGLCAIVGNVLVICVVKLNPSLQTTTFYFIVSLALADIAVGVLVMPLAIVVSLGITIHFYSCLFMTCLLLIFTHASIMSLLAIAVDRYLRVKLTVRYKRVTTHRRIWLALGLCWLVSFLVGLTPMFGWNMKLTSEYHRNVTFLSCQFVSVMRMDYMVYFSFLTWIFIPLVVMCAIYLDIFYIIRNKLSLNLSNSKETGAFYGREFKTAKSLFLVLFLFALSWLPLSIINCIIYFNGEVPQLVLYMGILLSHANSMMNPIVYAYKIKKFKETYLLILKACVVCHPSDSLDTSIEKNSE
# Also: assay procedure not described here.
# Chain of 5-hydroxytryptamine receptor 2B (P41595 whole entry): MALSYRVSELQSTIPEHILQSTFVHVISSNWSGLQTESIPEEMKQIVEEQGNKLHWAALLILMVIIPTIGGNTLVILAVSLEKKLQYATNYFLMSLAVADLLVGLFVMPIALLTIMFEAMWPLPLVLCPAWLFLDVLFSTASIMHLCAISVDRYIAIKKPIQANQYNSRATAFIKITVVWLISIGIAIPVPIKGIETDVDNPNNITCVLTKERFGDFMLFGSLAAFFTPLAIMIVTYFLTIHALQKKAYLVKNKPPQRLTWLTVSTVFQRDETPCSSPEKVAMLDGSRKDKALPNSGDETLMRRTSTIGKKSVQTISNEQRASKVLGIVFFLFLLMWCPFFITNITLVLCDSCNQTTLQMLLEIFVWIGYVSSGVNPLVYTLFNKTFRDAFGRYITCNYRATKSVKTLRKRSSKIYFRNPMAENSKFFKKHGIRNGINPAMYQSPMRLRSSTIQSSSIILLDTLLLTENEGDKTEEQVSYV
# Chain of Delta-type opioid receptor (P41143 whole entry): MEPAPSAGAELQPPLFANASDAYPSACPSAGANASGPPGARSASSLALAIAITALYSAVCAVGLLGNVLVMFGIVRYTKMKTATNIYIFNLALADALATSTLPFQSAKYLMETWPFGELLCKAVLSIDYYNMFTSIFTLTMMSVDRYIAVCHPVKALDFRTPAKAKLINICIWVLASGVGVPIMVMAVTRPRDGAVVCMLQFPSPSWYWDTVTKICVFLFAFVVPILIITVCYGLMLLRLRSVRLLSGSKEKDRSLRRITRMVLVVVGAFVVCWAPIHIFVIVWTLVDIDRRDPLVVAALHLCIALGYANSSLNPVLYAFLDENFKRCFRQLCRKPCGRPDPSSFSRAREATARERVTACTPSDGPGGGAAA
# Chain of D(1A) dopamine receptor (P21728 whole entry): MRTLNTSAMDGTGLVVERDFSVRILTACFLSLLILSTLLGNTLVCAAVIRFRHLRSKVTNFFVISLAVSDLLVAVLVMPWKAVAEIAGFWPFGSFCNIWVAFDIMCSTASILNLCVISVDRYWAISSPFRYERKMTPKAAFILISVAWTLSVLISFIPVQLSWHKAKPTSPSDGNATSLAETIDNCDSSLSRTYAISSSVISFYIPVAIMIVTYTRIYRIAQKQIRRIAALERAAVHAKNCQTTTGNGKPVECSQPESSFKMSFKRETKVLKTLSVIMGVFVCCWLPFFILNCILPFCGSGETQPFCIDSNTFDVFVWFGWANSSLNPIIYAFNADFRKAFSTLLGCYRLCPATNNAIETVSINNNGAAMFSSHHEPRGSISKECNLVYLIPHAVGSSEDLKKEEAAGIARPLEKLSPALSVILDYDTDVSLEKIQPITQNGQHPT
# Chain of D(3) dopamine receptor (P35462 whole entry): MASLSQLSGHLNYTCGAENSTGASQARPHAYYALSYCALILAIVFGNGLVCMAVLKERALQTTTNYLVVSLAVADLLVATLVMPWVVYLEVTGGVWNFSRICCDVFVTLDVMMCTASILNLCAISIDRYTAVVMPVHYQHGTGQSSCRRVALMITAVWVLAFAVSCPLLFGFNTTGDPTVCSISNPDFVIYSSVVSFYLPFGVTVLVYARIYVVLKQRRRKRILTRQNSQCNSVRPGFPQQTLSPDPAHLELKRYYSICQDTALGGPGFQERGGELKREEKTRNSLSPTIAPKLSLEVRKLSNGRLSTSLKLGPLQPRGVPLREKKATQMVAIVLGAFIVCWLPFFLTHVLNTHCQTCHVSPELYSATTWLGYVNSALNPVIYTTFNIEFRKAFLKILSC
# Chain of Motilin receptor (O43193 whole entry): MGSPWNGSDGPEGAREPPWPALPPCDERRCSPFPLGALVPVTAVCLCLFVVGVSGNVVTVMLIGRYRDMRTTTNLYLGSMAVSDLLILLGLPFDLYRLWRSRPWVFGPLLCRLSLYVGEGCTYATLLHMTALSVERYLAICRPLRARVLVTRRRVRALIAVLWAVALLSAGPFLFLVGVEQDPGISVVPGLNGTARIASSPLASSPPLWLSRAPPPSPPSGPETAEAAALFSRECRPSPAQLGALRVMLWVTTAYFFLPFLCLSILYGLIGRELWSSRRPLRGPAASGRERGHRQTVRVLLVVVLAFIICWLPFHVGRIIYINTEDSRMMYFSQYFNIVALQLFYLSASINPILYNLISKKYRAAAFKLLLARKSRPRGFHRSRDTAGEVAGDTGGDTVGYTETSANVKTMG
# Chain of Growth hormone secretagogue receptor type 1 (Q92847 whole entry): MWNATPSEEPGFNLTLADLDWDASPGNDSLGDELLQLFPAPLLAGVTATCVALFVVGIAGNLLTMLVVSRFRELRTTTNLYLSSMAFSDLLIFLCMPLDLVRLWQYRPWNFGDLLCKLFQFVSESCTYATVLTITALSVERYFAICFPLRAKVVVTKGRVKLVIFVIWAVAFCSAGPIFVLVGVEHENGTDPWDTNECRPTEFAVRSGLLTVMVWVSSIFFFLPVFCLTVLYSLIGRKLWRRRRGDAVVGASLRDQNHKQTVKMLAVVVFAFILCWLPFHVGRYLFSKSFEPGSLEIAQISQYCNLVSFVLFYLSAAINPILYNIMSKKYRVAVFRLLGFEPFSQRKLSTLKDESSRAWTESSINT
# Chain of Bile salt export pump (O95342 whole entry): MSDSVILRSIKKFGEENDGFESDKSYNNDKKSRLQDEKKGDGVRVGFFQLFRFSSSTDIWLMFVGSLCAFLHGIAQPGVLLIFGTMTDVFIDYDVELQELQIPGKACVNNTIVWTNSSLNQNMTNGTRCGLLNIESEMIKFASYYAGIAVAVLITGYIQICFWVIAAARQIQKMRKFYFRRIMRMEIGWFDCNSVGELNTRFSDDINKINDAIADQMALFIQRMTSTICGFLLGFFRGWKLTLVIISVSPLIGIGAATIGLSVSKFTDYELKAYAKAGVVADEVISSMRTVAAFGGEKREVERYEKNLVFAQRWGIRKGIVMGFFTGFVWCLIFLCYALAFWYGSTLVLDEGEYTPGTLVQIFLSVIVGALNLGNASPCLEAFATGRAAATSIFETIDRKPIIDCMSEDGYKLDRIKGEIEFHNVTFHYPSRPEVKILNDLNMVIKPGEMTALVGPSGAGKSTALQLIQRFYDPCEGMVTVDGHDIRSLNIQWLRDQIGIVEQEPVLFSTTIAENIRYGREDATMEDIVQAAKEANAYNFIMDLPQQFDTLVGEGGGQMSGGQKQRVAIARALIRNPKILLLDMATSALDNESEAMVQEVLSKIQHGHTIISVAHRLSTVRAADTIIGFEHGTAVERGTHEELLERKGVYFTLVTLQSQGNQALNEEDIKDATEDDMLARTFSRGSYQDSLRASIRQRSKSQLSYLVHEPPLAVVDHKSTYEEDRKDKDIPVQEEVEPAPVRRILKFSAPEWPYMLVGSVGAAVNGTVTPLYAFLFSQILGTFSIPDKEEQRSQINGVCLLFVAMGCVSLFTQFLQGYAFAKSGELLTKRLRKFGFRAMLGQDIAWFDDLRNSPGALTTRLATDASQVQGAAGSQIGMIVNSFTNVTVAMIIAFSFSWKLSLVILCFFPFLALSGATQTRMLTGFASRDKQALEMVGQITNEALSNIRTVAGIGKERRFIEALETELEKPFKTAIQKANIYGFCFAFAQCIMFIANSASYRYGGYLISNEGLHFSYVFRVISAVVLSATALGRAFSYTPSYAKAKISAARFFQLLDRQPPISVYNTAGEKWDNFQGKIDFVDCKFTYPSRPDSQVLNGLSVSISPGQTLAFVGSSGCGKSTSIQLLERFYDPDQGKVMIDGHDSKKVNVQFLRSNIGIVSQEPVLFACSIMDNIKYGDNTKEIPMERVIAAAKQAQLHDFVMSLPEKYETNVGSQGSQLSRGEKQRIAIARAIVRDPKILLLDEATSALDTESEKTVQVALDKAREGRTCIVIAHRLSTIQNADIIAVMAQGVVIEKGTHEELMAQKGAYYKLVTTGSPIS
# Chain of cGMP-inhibited 3',5'-cyclic phosphodiesterase 3A (Q14432 whole entry): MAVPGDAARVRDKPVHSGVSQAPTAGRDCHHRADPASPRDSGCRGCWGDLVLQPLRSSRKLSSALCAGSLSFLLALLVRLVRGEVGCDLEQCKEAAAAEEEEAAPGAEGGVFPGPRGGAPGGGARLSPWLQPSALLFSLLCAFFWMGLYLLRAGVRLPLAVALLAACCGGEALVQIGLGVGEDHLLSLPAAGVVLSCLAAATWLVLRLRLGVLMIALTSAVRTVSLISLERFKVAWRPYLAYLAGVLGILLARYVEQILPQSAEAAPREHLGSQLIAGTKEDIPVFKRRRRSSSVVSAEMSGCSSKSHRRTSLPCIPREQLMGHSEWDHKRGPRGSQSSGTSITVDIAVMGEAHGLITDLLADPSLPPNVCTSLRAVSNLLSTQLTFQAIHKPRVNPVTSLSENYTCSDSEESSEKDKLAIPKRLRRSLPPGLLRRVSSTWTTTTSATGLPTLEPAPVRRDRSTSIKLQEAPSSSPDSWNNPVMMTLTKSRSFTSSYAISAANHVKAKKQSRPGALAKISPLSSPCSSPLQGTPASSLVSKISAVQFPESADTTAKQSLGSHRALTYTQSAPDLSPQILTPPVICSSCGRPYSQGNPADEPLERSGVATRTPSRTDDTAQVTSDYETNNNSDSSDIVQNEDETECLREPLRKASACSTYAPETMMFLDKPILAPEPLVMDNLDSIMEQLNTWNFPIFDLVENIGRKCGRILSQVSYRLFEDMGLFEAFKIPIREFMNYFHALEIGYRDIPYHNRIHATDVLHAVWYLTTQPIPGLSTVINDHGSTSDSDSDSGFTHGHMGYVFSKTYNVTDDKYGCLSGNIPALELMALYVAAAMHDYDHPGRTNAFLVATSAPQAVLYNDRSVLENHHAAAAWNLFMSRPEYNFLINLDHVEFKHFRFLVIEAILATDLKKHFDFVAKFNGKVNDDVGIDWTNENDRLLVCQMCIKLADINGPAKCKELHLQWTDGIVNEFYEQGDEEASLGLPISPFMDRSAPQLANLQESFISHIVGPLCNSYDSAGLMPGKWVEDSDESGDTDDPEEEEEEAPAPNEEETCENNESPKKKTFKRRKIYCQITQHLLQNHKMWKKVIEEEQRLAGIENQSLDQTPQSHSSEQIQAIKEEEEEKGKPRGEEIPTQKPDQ
AC50 [1] [µM],AC50 [2] [µM],AC50 [3] [µM],AC50 [4] [µM],AC50 [5] [µM],AC50 [6] [µM],AC50 [7] [µM],AC50 [8] [µM],AC50 [9] [µM],AC50 [10] [µM],AC50 [11] [µM],AC50 [12] [µM],AC50 [13] [µM],AC50 [14] [µM],Structure (SMILES)
> 10,> 10,> 10,> 30,> 30,> 10,> 10,> 300,> 30,> 10,> 10,> 10,> 30,> 10,CCN(CCO)CCCC(C)Nc1ccnc2cc(Cl)ccc12 (stereo unspecified) [HYDROXYCHLOROQUINE]
> 30,> 30,> 30,26,> 30,19,16.8,> 300,7.34,> 30,15.8,6.47,29,27,CCN(CC)CCn1c(=O)c(Cc2ccc(OC)cc2)nc2ccccc21 [CAROVERINE]
> 30,> 30,> 30,> 30,> 30,> 30,> 30,> 300,> 30,> 30,> 30,> 30,> 30,11,N[C@@H](Cc1cc(I)c(Oc2cc(I)c(O)c(I)c2)c(I)c1)C(=O)O [LEVOTHYROXINE]
> 30,> 30,> 30,> 30,> 30,> 30,> 30,> 300,> 30,> 30,> 30,> 30,> 30,> 30,CCOCC(O)COc1ccc(NC(=O)CC[S+](C)C)cc1 (stereo unspecified)
> 30,> 30,11,> 30,> 30,> 30,> 30,> 300,> 30,> 30,> 30,> 30,> 30,> 30,CN(C)CCc1c[nH]c2ccc(CS(=O)(=O)N3CCCC3)cc12 [ALMOTRIPTAN]
> 10,> 10,> 10,> 30,> 30,> 10,> 10,> 300,> 30,> 30,> 10,> 10,> 30,> 10,NCCCCCC(=O)O [AMINOCAPROIC ACID]
> 30,> 10,> 10,> 30,> 30,> 10,> 10,> 300,> 30,> 30,> 30,> 30,> 30,> 30,C=CC1=C(C(=O)O)N2C(=O)[C@@H](NC(=O)/C(=N\O)c3csc(N)n3)[C@H]2SC1
> 30,> 30,> 30,> 30,> 30,> 30,> 30,> 300,> 30,> 30,> 30,> 30,> 30,> 30,O=C(O)[C@H]1/C(=C/CO)O[C@@H]2CC(=O)N21 [CLAVULANIC ACID]

Structure (SMILES),AC50 [1] [µM],AC50 [2] [µM],AC50 [3] [µM],AC50 [4] [µM],AC50 [5] [µM],AC50 [6] [µM],AC50 [7] [µM],AC50 [8] [µM],AC50 [9] [µM],AC50 [10] [µM],AC50 [11] [µM],AC50 [12] [µM],AC50 [13] [µM],AC50 [14] [µM]
CN1CC2c3ccccc3Oc3ccc(Cl)cc3C2C1 (stereo unspecified) [ASENAPINE],> 30,> 30,> 30,> 30,> 30,,> 30,270,0.0044,> 30,> 30,24,18,> 30
CS(=O)(=O)Nc1ccc([N+](=O)[O-])cc1Oc1ccccc1 [NIMESULIDE],20,> 30,> 30,> 30,> 30,> 30,27,110,> 30,15,> 30,30,> 30,
CN(C)CCC=C1c2ccccc2CCc2ccccc21 [AMITRIPTYLINE],1.4,> 10,,> 30,> 30,> 10,> 30,180,0.44,> 30,> 30,> 30,8.7,14.1
CCC[C@@]1(CCc2ccccc2)CC(O)=C([C@H](CC)c2cccc(NS(=O)(=O)c3ccc(C(F)(F)F)cn3)c2)C(=O)O1,11,> 30,> 30,16,> 30,> 30,27,3.2,> 30,> 30,5.8,> 30,> 30,6.4
O=C1[C@@H]2[C@H]3CC[C@H](C3)[C@@H]2C(=O)N1C[C@@H]1CCCC[C@H]1CN1CCN(c2nsc3ccccc23)CC1 [LURASIDONE],> 30,,> 30,> 30,> 30,> 30,> 30,13,0.43,> 30,> 30,> 30,> 30,9.9
C[C@@H](O)[C@H]1C(=O)N2C(C(=O)O)=C(SCCN=CN)C[C@H]12 [IMIPENEM ANHYDROUS],> 300,> 300,> 300,> 300,> 300,,> 300,> 300,> 300,> 300,> 300,> 300,> 300,180
